Values quoted from earlier work as cited in patent US20090318627A1, “SOLID PHASE SYNTHESIS OF ACRIDINIUM DERIVATIVES” (Siemens Healthcare Diagnostics Inc., priority 2006, published 2009).

Conditions: hydrolysis of ester linkage between acridinium ring and phenol

| Compound | hydrolytic stability of the acridinium ester linkage, in words |
| --- | --- |
| Cc1cc(C(=O)ON2C(=O)CCC2=O)cc(C)c1OC(=O)c1c2ccccc2[n+](C)c2ccccc12 [DMAE-NHS, 2′,6′-dimethyl-4′-(N-succinimidyloxycarbonyl)phenyl-10-methylacridinium-9-carboxylate] | significantly more resistant to hydrolysis |
| 9-carboxyphenyl-N-methylacridinium bromide | quite unstable |
